Patent publication US5629289A, “Cyclic peptide antifungal agents” (Eli Lilly and Company, priority 1995, dated 1997)
≈ marks a conversion by molar mass, not a printed value. *1 amine or outer side, *2 acyl side, *3 side chain or, on linkers, in order; H or OH if unused. Where a SMILES comes first, the peptide text is derived from it. Bridges are numbered along the chain shown (N, C = ends). [ ]: non-standard residue; d: D form. The star is where a group is joined. ξ: configuration not given here. pTerphenylCO(4''-OnC5H11) = CCCCCOc1ccc(-c2ccc(-c3ccc(C(=O)*)cc3)cc2)cc1; ξOrn(4ξ-OH) = O=C(C(CC(O)CN[*:3])N[*:1])[*:2]; ξhTyr(βOH) = NC(C(=O)O)C(O)Cc1ccc(O)cc1; ξPro(3ξ-OH,4ξ-Me) = CC1CNC(C(=O)O)C1O; ξHyp = O=C(O)C1CC(O)CN1

System: C. albicans
Type: cell-based
Method: Antifungal activity of a test compound is determined in vitro by obtaining the minimum inhibitory concentration (MIC) of the compound using a standard agar dilution test or a disc-diffusion test. The compound is then tested in vivo (in mice) to determine the effective dose of the test compound for controlling a systemic fungal infection. Accordingly, the compound prepared in Example 1C was tested for antifungal activity against C. albicans.

CCCCCOc1ccc(-c2ccc(-c3ccc(C(=O)NC4CC(O)CNC(=O)C5C(O)C(C)CN5C(=O)CNC(=O)C(C(O)Cc5ccc(O)cc5)NC(=O)C5CC(O)CN5C(=O)CNC4=O)cc3)cc2)cc1 (stereo not shown) [Example 1C] ({pTerphenylCO(4''-OnC5H11)}-[ξOrn(4ξ-OH)]G[ξHyp][ξhTyr(βOH)]G[ξPro(3ξ-OH,4ξ-Me)]; lactam 1-C)
minimal inhibitory concentration (MIC) against C. albicans: 0.312 µg/mL (≈ 0.306 µM)
